Laboratory results as given in patent US5830855A, “Lipodepsipeptides as antifungal and fungicidal agents” (priority 1996, dated 1998).
In brackets after ≈: the same amount, converted by molar mass. Numbered stars: 1 amine (or outer) side, 2 acyl side, 3 side chain; on linkers, the order of the positions; unused ones are H or OH. Bridge positions count the residues as written; N and C are the ends. Square brackets hold non-standard residues; d marks the D form. Peptide text beside a SMILES is read from it. * marks the point of attachment. ξ: configuration not given here. Asp(3S-OH) = N[C@H](C(=O)O)[C@H](O)C(=O)O; Thr(4-Cl) = N[C@H](C(=O)O)[C@H](O)CCl; ξAsp(3ξ-OH) = NC(C(=O)O)C(O)C(=O)O; X3 = O=C(C(N[*:1])C(O)CCl)[*:2]; X1 = CCCCCCCCC[C@@H](O)CC(=O)*; X2 = CCCCCCCCCCCC(O)CC(=O)*; dDab = NCC[C@@H](N)C(=O)O; Dab = NCC[CH](N)C(=O)O; Orn = NCCC[CH](N)C(=O)O; hSer = N[CH](CCO)C(=O)O; Dhb = C/C=C(\N)C(=O)O

What was measured:
Assay type in all cases: cell-based
Candida rugosa [1] = assay: Minimum Fungicidal Concentration (MFC); details: Table 2, 2 isolates, 24 hr
Description: (§1) Medium: Liquid RPMI 1640 (RPMI) medium with L-glutamine and without sodium bicarbonate (Sigma Chemical Co., R-6504; St. Louis, Mo.) buffered with 0.165M MOPS (34.54 g/liter) was used for in vitro antifungal tests. The medium was adjusted to pH 7.0 with 10M NaOH and filter sterilized.
(§2) Lipodepsipeptide Dilutions: All stock drug solution concentrations were at least 10-fold higher than the highest concentration tested. AmB, ketoconazole, and the test compounds (SR-E, ST-B, and SS-A) were dissolved in sterile distilled water, 0.2N HCl, and 0.001N HCl, respectively. Each stock solution was diluted to 2× the highest concentration of drug tested with RPMI. Two-fold dilutions were made with RPMI medium.
(§3) Preparation of Inoculum Suspensions: On Sabouraud dextose agar (SDA; BBL, Becton and Dickinson and Co., Cockeysville, Md.) all isolates were subcultured at least twice before use to ensure purity and viability. Candida spp. and Saccharomyces cerevisiae were grown for 24 hr at 35° C. Isolates of Cryptococcus neoformans were grown for 48 hr at 35° C. Yeast cells from at least five 1-mm-diameter colonies were suspended in 5 ml of sterile 0.85% saline. The resulting suspension was vortexed for 15 sec. The turbidity of each mixed suspension was measured at 530 nm and adjusted to 1×10^6 to 5×10^6 CFU/ml by the NCCLS spectrophotometric method described by National Committee for Clinical Laboratory Standards. 1992. Reference method for broth dilution antifungal susceptibility testing of yeasts; proposed standard, NCCLS document M27-P (ISBN 1-56238-186-5). NCCLS, Villanova. The final transmission of each yeast suspension ranged from 85-87%.
(§4) Aspergillus fumigatus and Mucor spp. were grown for 1 wk at 35° C. The dermatophytes, Microsporum spp. and Trichophyton spp., were grown for two wk at 30° C. Fungal spores were washed from the plates of all good spore formers (A. fumigatus, Mucor spp., Microsporum canis and Trichophyton spp.) by placing 5 ml of 0.85% saline with 0.2% Tween 80 on the plates and mixing with an inoculating loop. The spore/mycelium suspension was drawn off with a pipette and allowed to settle for at least 5 min. For the poor spore-forming Microsporum audouinii, the procedure was the same except the spore/mycelial suspension was homogenized with a ground glass tissue homogenizer and then allowed to settle for at least 5 min. A small amount of the supernatant was transferred to 5 ml of sterile saline and vortexed. The stock suspensions of all filamentous fungi were measured at 530 nm and adjusted to 85-87% transmission. The concentration (1×10^6 to 5×10^6 CFU/ml) was determined by hemacytometer count or plate count on SDA. All stock suspensions were diluted 1000-fold with RPMI, or 2× the final desired test inocula. The 2× inoculum was diluted 1:1 when the wells were inoculated, and the desired inoculum size was achieved.
(§5) Broth Microdilution Test: Broth microdilution tests were performed using sterile, disposable, multiwell microdilution plates (96 round U-bottom wells) (Falcon 3077; Becton and Dickinson Labware, Lincoln Park, N.J.). The drugs (2× concentrations) were dispensed into the wells of rows number 1 to 10 of the microdilution plates in 100 μl volumes from highest drug concentration to lowest drug concentration. Each well was inoculated with 100 μl of the corresponding 2× concentrated fungal suspension. The wells of row 11 contained the inoculum with drug-free media as a positive growth control and the wells of row 12 contained uninoculated-drug-free medium as a sterility control.
(§6) Incubation and Scoring of MIC: All cultures were incubated without shaking at the temperature used during subculture. Incubation times were 48 hr for Candida spp., S. cerevisiae, A. fumigatus, and Mucor spp; 72 hr for C. neoformans; and 7 days for Microsporum and Trichophyton spp. […]

Candida parapsilosis [2] = assay: Minimum Fungicidal Concentration (MFC); details: Table 2, 2 isolates, 24 hr
Description: as §1, §2, §3, §4, §5, §6

Microsporum spp. [3] = assay: Minimum Fungicidal Concentration (MFC); details: Table 2, 2 isolates, 7 d
Description: as §1, §2, §3, §4, §5, §6

Candida lusitaniae [4] = assay: Minimum Fungicidal Concentration (MFC); details: Table 2, 2 isolates, 24 hr
Description: as §1, §2, §3, §4, §5, §6

Candida tropicalis [5] = assay: Minimum Fungicidal Concentration (MFC); details: Table 2, 2 isolates, 24 hr
Description: as §1, §2, §3, §4, §5, §6

Candida kefyr [6] = assay: Minimum Fungicidal Concentration (MFC); details: Table 2, 1 isolate, 24 hr
Description: as §1, §2, §3, §4, §5, §6

Candida albicans [7] = assay: Minimum Fungicidal Concentration (MFC); details: Table 2, 20 isolates, subculture on drug-free SDA 24 hr
Description: as §1, §2, §3, §4, §5, §6

Trichophyton spp. [8] = assay: Minimum Fungicidal Concentration (MFC); details: Table 2, 3 isolates, 7 d
Description: as §1, §2, §3, §4, §5, §6

Saccharomyces cerevisiae [9] = assay: Minimum Fungicidal Concentration (MFC); details: Table 2, 1 strain tested more than once, 24 hr
Description: as §1, §2, §3, §4, §5, §6

Candida krusei [10] = assay: Minimum Fungicidal Concentration (MFC); details: Table 2, 2 isolates, 24 hr
Description: as §1, §2, §3, §4, §5, §6

Cryptococcus neoformans [11] = assay: Minimum Fungicidal Concentration (MFC); details: Table 2, 14 isolates, 48 hr
Description: as §1, §2, §3, §4, §5, §6

Candida rugosa [12] = assay: Broth microdilution MIC; details: Table 1 (MICs); Candida rugosa, 2 isolates; 48 hr
Description: as §1, §2, §3, §4, §5, §6

Candida parapsilosis [13] = assay: Broth microdilution MIC; details: Table 1 (MICs), 2 isolates, 48 hr
Description: as §1, §2, §3, §4, §5, §6

Microsporum spp. [14] = assay: Broth microdilution MIC; details: Table 1 (MICs), 2 isolates, 7 days
Description: as §1, §2, §3, §4, §5, §6

Candida lusitaniae [15] = assay: Broth microdilution MIC; details: Table 1 (MICs), 2 isolates, 48 hr
Description: as §1, §2, §3, §4, §5, §6

Candida tropicalis [16] = assay: Broth microdilution MIC; details: Table 1 (MICs); Candida tropicalis, 2 isolates; 48 hr
Description: as §1, §2, §3, §4, §5, §6

Candida kefyr [17] = assay: Broth microdilution MIC; details: Table 1 (MICs), 1 isolate, 48 hr
Description: as §1, §2, §3, §4, §5, §6

Candida albicans [18] = assay: Broth microdilution MIC; details: Table 1 (MICs); Candida albicans, 20 isolates; RPMI pH 7.0, 48 hr; Ktz read at score 2, others at score 0
Description: as §1, §2, §3, §4, §5, §6

Trichophyton spp. [19] = assay: Broth microdilution MIC; details: Table 1 (MICs), 3 isolates, 7 days
Description: as §1, §2, §3, §4, §5, §6

Saccharomyces cerevisiae [20] = assay: Broth microdilution MIC; details: Table 1 (MICs), 1 strain tested more than once (control ATCC 36375), 48 hr
Description: as §1, §2, §3, §4, §5, §6

Aspergillus fumigatus = assay: Broth microdilution MIC; details: Table 1 (MICs), 16 isolates, 48 hr
Description: as §1, §2, §3, §4, §5, §6

Candida krusei [21] = assay: Broth microdilution MIC; details: Table 1 (MICs), 2 isolates, 48 hr
Description: as §1, §2, §3, §4, §5, §6

Cryptococcus neoformans [22] = assay: Broth microdilution MIC; details: for MIC range: Table 1 (MICs), Cryptococcus neoformans, 14 isolates, 72 hr
Description: as §1, §2, §3, §4, §5, §6

SMILES | MFC (μg/ml) range (Candida rugosa [1]) [µg/mL] | MFC (μg/ml) range (Candida parapsilosis [2]) [µg/mL] | MFC (μg/ml) range (Microsporum spp. [3]) [µg/mL] | MFC (μg/ml) range (Candida lusitaniae [4]) [µg/mL] | MFC (μg/ml) range (Candida tropicalis [5]) [µg/mL] | MFC (μg/ml) range (Candida kefyr [6]) [µg/mL] | MFC (μg/ml) range (Candida albicans [7]) [µg/mL] | MFC (μg/ml) range (Trichophyton spp. [8]) [µg/mL] | MFC (μg/ml) range (Saccharomyces cerevisiae [9]) [µg/mL] | MFC (μg/ml) range (Candida krusei [10]) [µg/mL] | MFC (μg/ml) range (Cryptococcus neoformans [11]) [µg/mL] | MIC range (Candida rugosa [12]) [µg/mL] | MIC range (Candida parapsilosis [13]) [µg/mL] | MIC range (Microsporum spp. [14]) [µg/mL] | MIC range (Candida lusitaniae [15]) [µg/mL] | MIC (μg/ml) range (Candida tropicalis [16]) [µg/mL] | MIC (μg/ml) range (Candida kefyr [17]) [µg/mL] | MIC range (Candida albicans [18]) [µg/mL] | MIC range (Trichophyton spp. [19]) [µg/mL] | MFC (μg/ml) range (Saccharomyces cerevisiae [20]) [µg/mL] | also measured
C/C=C1\NC(=O)[C@H](Cc2ccccc2)NC(=O)[C@H](CCCN=C(N)N)NC(=O)[C@@H](CCN)NC(=O)[C@H](CCN)NC(=O)[C@@H](CO)NC(=O)[C@@H](NC(=O)C[C@H](O)CCCCCCCCC)COC(=O)[C@H]([C@H](O)CCl)NC(=O)[C@H]([C@H](O)C(=O)O)NC1=O [SR-E, Syringomycin-E] (X1-S[dS][Dab][dDab]RF[Dhb][Asp(3S-OH)][Thr(4-Cl)]; ester 1-C) | 10 to 20 | 2.5 (≈ 2.04 µM) | 6.25 to 12.5 | 2.5 to 5 | 5 (≈ 4.08 µM) | 2.5 (≈ 2.04 µM) | 2.5 to 5 | 6.25 to 25 | 2.5 (≈ 2.04 µM) | 10 (≈ 8.16 µM) | 2.5 to 10 | 5 to 20 | 2.5 (≈ 2.04 µM) | 6.25 to 12.5 | 2.5 (≈ 2.04 µM) | 2.5 to 5 | 2.5 (≈ 2.04 µM) | 2.5 to 5 | 3.1 to 6.25 | 2.5 (≈ 2.04 µM) | MIC range (Aspergillus fumigatus): 10 to 20 µg/mL; MIC (μg/ml) range (Candida krusei [21]): 10 µg/mL (≈ 8.16 µM); MIC range (Cryptococcus neoformans [22]): 2.5 to 10 µg/mL
C/C=C1\NC(=O)C(C(C)O)NC(=O)C(CCCN)NC(=O)C(CCO)NC(=O)CNC(=O)C(CCN)NC(=O)C(NC(=O)CC(O)CCCCCCCCCCC)COC(=O)C(C(O)CCl)NC(=O)C(C(O)C(=O)O)NC1=O (centres unmarked) [ST-B, Syringotoxin B] (X2-S[Dab]G[hSer][Orn]T[Dhb][ξAsp(3ξ-OH)][X3]; ester 1-C; configuration not given here) | 6.25 to 50 | 12.5 to 25 | 25 to 200 | 6.25 to 12.5 | 12.5 (≈ 11 µM) | 3.2 (≈ 2.82 µM) | 3.2 to 12.5 | 25 to 200 | 12.5 to 25 | 12.5 to 50 | 0.8 to 12.5 | 3.2 to 25 | 6.25 to 12.5 | 25 to 200 | 6.25 (≈ 5.5 µM) | 3.2 (≈ 2.82 µM) | 3.2 (≈ 2.82 µM) | 3.2 to 12.5 | 25 to 200 | 6.25 (≈ 5.5 µM) | MIC range (Aspergillus fumigatus): 6.25 to 25 µg/mL; MIC (μg/ml) range (Candida krusei [21]): 12.5 to 25 µg/mL; MIC range (Cryptococcus neoformans [22]): 0.8 to 6.25 µg/mL; MIC, one strain of C. neoformans (Cryptococcus neoformans [22]; one strain of C. neoformans, very sensitive to ST-B, somewhat resistant to AmB): 0.8 µg/mL
